Assay results as given in patent US10413505B1, “Pharmaceutical compositions and methods of using the same” (priority 2017, dated 2019).
Read-outs that look alike come from different tables or passages of the source.

Columns and labels:
[1] = Example 2 plasma pharmacokinetics, normal renal function vs severe renal impairment; conditions: for AUC(0-t) / AUC(0-inf) / Cmax / Tmax / half-life: both, human, 160 mg
[2] = Example 1 urinary pharmacokinetics after intranasal administration; assay type: in vivo, human; conditions: healthy subjects, single intranasal 160 mg cocaine HCl; for CL renal: human, urine, inhaled or intranasal, 160 mg
Protocol: A single dose of a pharmaceutical composition was administered to both nostrils using cottonoid pledgets. […] Each pledget absorbed approximately 1 mL of pharmaceutical composition (i.e., 40 mg cocaine hydrochloride). Two soaked pledgets were placed into each nasal cavity of the subject and against the anterior septum for 20 minutes; thus, a total dose of 160 mg of cocaine hydrochloride was administered.
Urine samples were collected pre-dose and at the following intervals from the start of intranasal application of the pharmaceutical composition: 0-2 hours, 2-4 hours, 4-8 hours, and 8-12 hours. […] A 25-μL aliquot of each urine sample was processed by liquid-liquid extraction.
Urinary pharmacokinetic parameters were analyzed using noncompartmental methods.

[3] = normal renal function, single intranasal 160 mg cocaine HCl, plasma
[4] = severe renal impairment vs normal renal function, ANOVA
[5] = severe renal impairment, single intranasal 160 mg cocaine HCl, plasma
[6] = urine 0-12 h, metabolites as cocaine equivalents

COC(=O)[C@H]1[C@@H](OC(=O)c2ccccc2)C[C@@H]2CC[C@H]1N2C [Cocaine, cocaine, reference compound]
CL/F (Geometric Least Squares Mean, ANOVA) ([1]; Impaired renal function (severe), single intranasal 160 mg cocaine HCl): 1333 L/h | AUC(0-t) ([1]; plasma, inhaled or intranasal, AUC0→t (Geometric mean), normal renal function, single intranasal 160 mg cocaine HCl): 78.7 ng·h/mL | AUC(0-t) ([1]; plasma, inhaled or intranasal, AUC0→t (Geometric mean), severe renal impairment, single intranasal 160 mg cocaine HCl): 106 ng·h/mL | AUC(0-t) ([1]; plasma, inhaled or intranasal, AUC0→t (Mean), normal renal function, single intranasal 160 mg cocaine HCl): 83.5 ng·h/mL | AUC(0-t) ([1]; plasma, inhaled or intranasal, AUC0→t (Mean), severe renal impairment, single intranasal 160 mg cocaine HCl): 119 ng·h/mL | AUC(0-t) ([1]; plasma, inhaled or intranasal, AUC0→t (Median), normal renal function, single intranasal 160 mg cocaine HCl): 91.6 ng·h/mL | AUC(0-t) ([1]; plasma, inhaled or intranasal, AUC0→t (Median), severe renal impairment, single intranasal 160 mg cocaine HCl): 109 ng·h/mL | AUC(0-inf) ([1]; plasma, inhaled or intranasal, AUC0→∞ (Geometric mean), normal renal function, single intranasal 160 mg cocaine HCl): 80.5 ng·h/mL | AUC(0-inf) ([1]; plasma, inhaled or intranasal, AUC0→∞ (Geometric mean), severe renal impairment, single intranasal 160 mg cocaine HCl): 107 ng·h/mL | AUC(0-inf) ([1]; plasma, inhaled or intranasal, AUC0→∞ (Mean), normal renal function, single intranasal 160 mg cocaine HCl): 85 ng·h/mL | AUC(0-inf) ([1]; plasma, inhaled or intranasal, AUC0→∞ (Mean), severe renal impairment, single intranasal 160 mg cocaine HCl): 120 ng·h/mL | AUC(0-inf) ([1]; plasma, inhaled or intranasal, AUC0→∞ (Median), normal renal function, single intranasal 160 mg cocaine HCl): 92.9 ng·h/mL | AUC(0-inf) ([1]; plasma, inhaled or intranasal, AUC0→∞ (Median), severe renal impairment, single intranasal 160 mg cocaine HCl): 110 ng·h/mL | AUC(0-t) ([1]; plasma, inhaled or intranasal, AUClast (Geometric Least Squares Mean, ANOVA), Impaired renal function (severe), single intranasal 160 mg cocaine HCl): 106 ng·h/mL | AUC(0-t) ([1]; plasma, inhaled or intranasal, AUClast (Geometric Least Squares Mean, ANOVA), Normal renal function, single intranasal 160 mg cocaine HCl): 78.7 ng·h/mL | Cmax ([1]; plasma, inhaled or intranasal, Cmax (Geometric Least Squares Mean, ANOVA), Impaired renal function (severe), single intranasal 160 mg cocaine HCl): 47.9 ng/mL | Cmax ([1]; plasma, inhaled or intranasal, Cmax (Geometric Least Squares Mean, ANOVA), Normal renal function, single intranasal 160 mg cocaine HCl): 35.9 ng/mL | Cmax ([1]; plasma, inhaled or intranasal, Cmax (Geometric mean), normal renal function, single intranasal 160 mg cocaine HCl): 35.9 ng/mL | Cmax ([1]; plasma, inhaled or intranasal, Cmax (Geometric mean), severe renal impairment, single intranasal 160 mg cocaine HCl): 47.9 ng/mL | Cmax ([1]; plasma, inhaled or intranasal, Cmax (Mean), normal renal function, single intranasal 160 mg cocaine HCl): 38.1 ng/mL | Cmax ([1]; plasma, inhaled or intranasal, Cmax (Mean), severe renal impairment, single intranasal 160 mg cocaine HCl): 57.8 ng/mL | Cmax ([1]; plasma, inhaled or intranasal, Cmax (Median), normal renal function, single intranasal 160 mg cocaine HCl): 37 ng/mL | Cmax ([1]; plasma, inhaled or intranasal, Cmax (Median), severe renal impairment, single intranasal 160 mg cocaine HCl): 55.4 ng/mL | Cmax ([1]; plasma, inhaled or intranasal, Cmax, range observed, renally impaired patients, soaked absorbent articles on nasal mucous membranes): 21.9 to 93.7 ng/mL | Tmax ([1]; plasma, inhaled or intranasal, Tmax (Geometric mean), normal renal function, single intranasal 160 mg cocaine HCl): 31.1 min | Tmax ([1]; plasma, inhaled or intranasal, Tmax (Geometric mean), severe renal impairment, single intranasal 160 mg cocaine HCl): 25.7 min | Tmax ([1]; plasma, inhaled or intranasal, Tmax (Mean), normal renal function, single intranasal 160 mg cocaine HCl): 35 min | Tmax ([1]; plasma, inhaled or intranasal, Tmax (Mean), severe renal impairment, single intranasal 160 mg cocaine HCl): 26.9 min | Tmax ([1]; plasma, inhaled or intranasal, Tmax (Median), severe renal impairment, single intranasal 160 mg cocaine HCl): 25 min | Tmax ([1]; plasma, inhaled or intranasal, median Tmax, normal renal function, single intranasal 160 mg cocaine HCl): 30 min | half-life ([1]; plasma, inhaled or intranasal, t1/2 (Geometric mean), normal renal function, single intranasal 160 mg cocaine HCl): 247 min | half-life ([1]; plasma, inhaled or intranasal, t1/2 (Geometric mean), severe renal impairment, single intranasal 160 mg cocaine HCl): 325 min | half-life ([1]; plasma, inhaled or intranasal, t1/2 (Mean), normal renal function, single intranasal 160 mg cocaine HCl): 300 min | half-life ([1]; plasma, inhaled or intranasal, t1/2 (Mean), severe renal impairment, single intranasal 160 mg cocaine HCl): 361 min | half-life ([1]; plasma, inhaled or intranasal, t1/2 (Median), normal renal function, single intranasal 160 mg cocaine HCl): 233 min | half-life ([1]; plasma, inhaled or intranasal, t1/2 (Median), severe renal impairment, single intranasal 160 mg cocaine HCl): 383 min | AUC(0-inf) ([1]; plasma, other: intranasal (drug-soaked pledgets in the nasal cavity), AUCinf, range observed, renally impaired patients): 61.2 to 180 ng·h/mL | Tmax ([1]; plasma, other: intranasal (drug-soaked pledgets in the nasal cavity), Tmax, range observed, renally impaired patients): 18.1 to 35.7 min | CL/F (Geometric Least Squares Mean, ANOVA) ([1]; normal renal function, single intranasal 160 mg cocaine HCl): 1774 L/h | AUC0→t (Max) [1, 3]: 109.9 ng·h/mL | AUC0→t (Min) [1, 3]: 34.29 ng·h/mL | AUC0→∞ (Max) [1, 3]: 110.3 ng·h/mL | AUC0→∞ (Min) [1, 3]: 37.67 ng·h/mL | Clast (Geometric mean) [1, 3]: 0.209 ng/mL | Clast (Max) [1, 3]: 0.626 ng/mL | Clast (Mean) [1, 3]: 0.263 ng/mL | Clast (Median) [1, 3]: 0.154 ng/mL | Clast (Min) [1, 3]: 0.114 ng/mL | Cmax (Max) [1, 3]: 62.7 ng/mL | Cmax (Min) [1, 3]: 16.7 ng/mL | Tlast (Geometric mean) [1, 3]: 20.6 h | Tlast (Max) [1, 3]: 32.0 h | Tlast (Mean) [1, 3]: 22.5 h | Tlast (Median) [1, 3]: 24.0 h | Tlast (Min) [1, 3]: 720 min | Tmax (Max) [1, 3]: 1.500 h | t1/2 (Max) [1, 3]: 10.67 h | t1/2 (Min) [1, 3]: 124 min | CL/F, percent lower than in normal subjects ([1]; renal impairment vs normal renal function): approximately 25% | plasma exposure (geometric mean Cmax, AUC), percent higher than in normal subjects ([1]; severe renal impairment vs normal renal function): approximately 33% | AUClast Ratio Impaired/Normal [1, 4]: 134.46% | CL/F Ratio Impaired/Normal [1, 4]: 75.13% | Cmax Ratio Impaired/Normal [1, 4]: 133.28% | AUC0→t (Max) [1, 5]: 221 ng·h/mL | AUC0→t (Min) [1, 5]: 43.0 ng·h/mL | AUC0→∞ (Max) [1, 5]: 227 ng·h/mL | AUC0→∞ (Min) [1, 5]: 44.2 ng·h/mL | Clast (Geometric mean) [1, 5]: 0.159 ng/mL | Clast (Max) [1, 5]: 0.432 ng/mL | Clast (Mean) [1, 5]: 0.186 ng/mL | Clast (Median) [1, 5]: 0.131 ng/mL | Clast (Min) [1, 5]: 0.102 ng/mL | Cmax (Max) [1, 5]: 131.0 ng/mL | Cmax (Min) [1, 5]: 14.1 ng/mL | Tlast (Geometric mean) [1, 5]: 26.9 h | Tlast (Max) [1, 5]: 32.0 h | Tlast (Mean) [1, 5]: 28.0 h | Tlast (Median) [1, 5]: 32.0 h | Tlast (Min) [1, 5]: 720 min | t1/2 (Max) [1, 5]: 8.65 h | t1/2 (Min) [1, 5]: 91.8 min | Total Urinary Recovery (Geometric mean) [2, 6]: 96.5 µg | Total Urinary Recovery (Mean) [2, 6]: 117 µg | Total Urinary Recovery (Median) [2, 6]: 114 µg | CL renal ([2]; read-out: Renal Clearance (Geometric mean) (converted)): 37.2 mL/min | CL renal ([2]; read-out: Renal Clearance (Mean) (converted)): 47.2 mL/min
